{"source": "paper PMC5011932", "about": "“Comparative pharmacokinetics and pharmacodynamics of intravenous artelinate versus artesunate in uncomplicated Plasmodium coatneyi-infected rhesus monkey model” (Malaria Journal, 2016)", "key": {"[1]": {"assay": "Plasma pharmacokinetics by HPLC-ECD after IV dose in rhesus monkeys", "details": "for %AUC20 / concentration at 0.08 h / concentration at 0.33 h / concentration at 0.67 h / concentration at 1 h / concentration at 3 h / concentration at 6 h / AUC(0-inf) / Cmax / half-life: mean; for concentration at 0.08 h / concentration at 0.33 h / concentration at 0.67 h / concentration at 1 h / concentration at 3 h / concentration at 6 h / AUC(0-t) / AUC(0-inf) / Cmax / half-life: rhesus monkey, plasma; for concentration at 0.08 h / concentration at 0.33 h / concentration at 0.67 h / concentration at 1 h / concentration at 3 h / concentration at 6 h: intravenous, 8 mg kg^-1, Plasma concentration; for concentration at 0.08 h: after IV AL 11.8 or AS 8.0 mg/kg; for AUC(0-t) / AUC(0-inf) / Cmax / half-life: iv, 8 mg/kg; for AUC(0-t): AUC 0-20, mean; for Cmax: IV AL/Lys 11.8 or AS/Na 8 mg/kg, analyte = label; for half-life: t 1/2, z", "protocol": "(§1) These doses were chosen as the minimal effective doses (from previous model development and validation studies, unpublished data) and blood was collected for pharmacokinetic analysis. After a week wash-out and recovery period, P. coatneyi (1 mL of >50,000 parasitized RBCs per microlitre or 5 × 10^6 RBC with a 1 % parasitaemia) were inoculated from a donor monkey into all the monkeys. The treatment was initiated at day 6 after inoculation at a parasitaemia ≥3 % or >200,000 parasites μL^−1 when the cohort of animals was minimally symptomatic. Drugs were given for 3 days with a loading dose initially followed by ½ of the first dose on the 2nd and 3rd days.\n(§2) Blood was collected for pharmacokinetic/pharmacodynamics (PK/PD) analysis after the first dose only due to rapid clearance of artemisinin derivatives. Heparinized blood was collected at 0, 5, 20, 40 min, 1, 3, and 6 h post-dose and plasma samples were separated within 2 h by centrifugation (1500g, 10 min). Aliquots of samples were made for simultaneous measurement by HPLC [16] and bioassay [14], and stored at −80 °C until analysis. All glassware was silanized before use with a 0.5 % aqueous solution (v/v) of Pierce Aquasil (Rockford, IL, USA) according to the manufacturer’s recommended procedure. Solid-phase extraction was performed on C-18 elution cartridge (3.0 ml, J.T. Baker Co.) using a VAC ELUTE SPS24 sample processing station (Analytichem International, Harbour City, CA, USA). The cartridge was preconditioned by sequential washing with 2.5 ml acetonitrile, 2.5 ml methanol and 2.5 ml water. One ml of distilled water was added to the cartridge before adding plasma sample (0.5 ml). Then, the cartridge was washed with 2.5 ml distilled water, 2.5 ml of 0.05 % H3PO4 (pH 4.5) and 2.5 ml of 20 % acetonitrile and completely dried by closing the vacuum for 15 min. The analytes were collected by eluting with 0.5 ml methanol three times and then with 0.5 ml 90:10 n-butyl chloride: ethyl acetate twice. The organic phases were pooled. The combined organic phases were then evaporated to dryness under a stream of nitrogen at room temperature. Extraction residues were reconstituted with 50:50 ethanol: water (0.3 ml), at least 16 h before injection. The injection volume was 100 µl for all samples.\n(§3) The plasma concentration of parent drugs, AL and AS, and their primary metabolites, DHA and 2-hydroxyartelinate (OHAL) respectively, were measured by HPLC with electrochemical detection in reductive mode (HPLC-ECD) [16], which was the only method for artemisinin compounds then (Additional files 1 and 2).\n(§4) HPLC with reductive electrochemical detection was performed using a model BAS 200B liquid chromatography (Bioanalytical Systems, Inc., West Lafayette, Indiana, USA). A Nova-Pak® C18 (3.9 × 150 mm, Waters Corporation, Milford, MA, USA) was used with 40 % acetonitrile in sodium acetate buffer (pH 3.6) as mobile phase. Detection was performed using a thin dual-layer glassy carbon electrode run in parallel mode at a potential of −1.0 V versus Ag/AgCl. The system was operated at the following temperatures: mobile phase 35 °C, column and detector oven 30 °C, cell 31 °C with the flow rate of 1.5 mL min^−1. Artemisinin (ART) was used as an internal standard. Samples were injected via Gilson model 231 XL sampling injector equipped with a 100 µL loop, a Gilson model 401 dilutor/pipettor, a sampler controller keypad (Gilson Medical Electronics, Middleton, WI, USA), and a Valco electrically actuated switching valve (Valco Instrument Co. Inc) was used. This system automatically deoxygenated and injected sample, which permits the high sample throughput associated with automated injection. Data were acquired and analysed using a Millennium^32 Chromatography Manager (Waters Corporation, Milford, MA, USA)."}, "[2]": {"details": "rhesus monkey, in vivo", "protocol": "as §1, §2, §3, §4"}}, "data": [{"compound": "C[C@H]1[C@@H](O)O[C@@H]2O[C@@]3(C)CC[C@H]4[C@H](C)CC[C@@H]1[C@@]24OO3", "note": "[DHA, dihydroartemisinin]", "values": [{"measurement": "Time of highest level post-dose", "setting": "[1]; after IV AS", "value": 5, "unit": "min"}, {"measurement": "%AUC20", "setting": "[1]; healthy rhesus", "value": 23.8, "unit": "%"}, {"measurement": "%AUC20", "setting": "[1]; infected rhesus", "value": 27.0, "unit": "%"}, {"measurement": "concentration at 0.08 h", "setting": "[1]; healthy rhesus", "value": 7.89, "unit": "µM"}, {"measurement": "concentration at 0.08 h", "setting": "[1]; infected rhesus", "value": 6.74, "unit": "µM"}, {"measurement": "concentration at 0.33 h", "setting": "[1]; healthy rhesus", "value": 6.75, "unit": "µM"}, {"measurement": "concentration at 0.33 h", "setting": "[1]; infected rhesus", "value": 5.92, "unit": "µM"}, {"measurement": "concentration at 0.67 h", "setting": "[1]; healthy rhesus", "value": 4.51, "unit": "µM"}, {"measurement": "concentration at 0.67 h", "setting": "[1]; infected rhesus", "value": 4.21, "unit": "µM"}, {"measurement": "concentration at 1 h", "setting": "[1]; healthy rhesus", "value": 3.52, "unit": "µM"}, {"measurement": "concentration at 1 h", "setting": "[1]; infected rhesus", "value": 2.68, "unit": "µM"}, {"measurement": "concentration at 3 h", "setting": "[1]; healthy rhesus", "value": 0.31, "unit": "µM"}, {"measurement": "concentration at 3 h", "setting": "[1]; infected rhesus", "value": 0.16, "unit": "µM"}, {"measurement": "concentration at 6 h", "setting": "[1]; healthy rhesus", "value": 0, "unit": "nM"}, {"measurement": "concentration at 6 h", "setting": "[1]; infected rhesus", "value": 0, "unit": "nM"}, {"measurement": "AUC(0-t)", "setting": "[1]; healthy rhesus", "value": 2.17, "unit": "µM·h"}, {"measurement": "AUC(0-t)", "setting": "[1]; infected rhesus", "value": 1.87, "unit": "µM·h"}, {"measurement": "AUC(0-inf)", "setting": "[1]; healthy rhesus", "value": 9.28, "unit": "µM·h"}, {"measurement": "AUC(0-inf)", "setting": "[1]; infected rhesus", "value": 7.45, "unit": "µM·h"}, {"measurement": "Cmax", "setting": "[1]; P. coatneyi infected rhesus", "value": 6.85, "unit": "µM"}, {"measurement": "Cmax", "setting": "[1]; healthy rhesus", "value": 8.1, "unit": "µM"}, {"measurement": "half-life", "setting": "[1]; healthy rhesus", "value": 35.9, "unit": "min"}, {"measurement": "half-life", "setting": "[1]; infected rhesus", "value": 30, "unit": "min"}]}, {"compound": "2-hydroxyartelinate [OHAL]", "values": [{"measurement": "t1/2, metabolite (M)", "setting": "[2]", "value": 42.2, "unit": "min"}]}]}
